{"source": "patent US20250295612A1", "about": "“NOVEL AMYLOID-BETA AGGREGATE DEGRADER AND BRAIN-TARGETING DRUG DELIVERY SYSTEM USING SAME” (UNIVERSITY-INDUSTRY COOPERATION GROUP OF KYUNG HEE …, priority 2022, published 2025)", "key": {"[1]": {"target": "T1, amyloid-beta plaques (amyloid-beta (Aβ) 1-42) (Homo sapiens, UniProt P05067)", "T1 construct": "amyloid-beta (Aβ) 1-42 (Anaspec, AS-20276, MW=4514.1, 1 mg); purchased Anaspec AS-20276", "T1 sequence (P05067 672-713 limits assumed)": "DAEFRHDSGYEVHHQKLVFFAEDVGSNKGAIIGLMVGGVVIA", "experiment": "Thioflavin T (ThT) fluorescence analysis of amyloid-beta plaque disaggregation", "format": "biochemical", "experimental": "To prepare amyloid-beta plaques, amyloid-beta (Aβ) 1-42 (Anaspec, AS-20276, MW=4514.1, 1 mg) was dissolved in a 1× PBS buffer (pH 7.4, 1 mL) to a final concentration of 222 μM. The solution was incubated (200 rpm) at 37° C. for 3 days, and the formed amyloid-beta plaques (Aβ plaques) were used in the following in vitro experiment without additional purification. From the formed library, hit compounds were identified through fluorescence analysis using thioflavin T (ThT), a probe of amyloid-beta plaques. Specifically, each amyloid-beta plaque disaggregation candidate (100 μM) was mixed with amyloid-beta plaques (10 μM) and ThT (10 μM), and incubated at 37° C. for 24 hours, and then a change in fluorescence intensity of ThT at 482 nm was confirmed (excitation wavelength: 413 nm). The absorption and emission spectra of ThT were obtained using UV/vis absorption spectroscopy (Agilent, California, USA) and a spectrofluorophotometer (Shimadzu Corp., Kyoto, Japan). For Compound P (ANA), a hit compound confirmed in Example 1, the amyloid-beta plaque disaggregation efficacy under various concentration conditions and pH conditions was confirmed through ThT assay in the same manner as in Example 1, and an emission intensity plot of ThT (10 μM) at 482 nm was shown in FIG. 2 (excitation wavelength: 413 nm)."}, "amyloid-beta plaques [2]": {"target": "T2, amyloid-beta plaques (Homo sapiens, UniProt P05067)", "T2 construct": "amyloid-beta (Aβ) 1-42 (Anaspec, AS-20276, MW=4514.1, 1 mg); purchased Anaspec AS-20276", "T2 sequence (P05067 672-713 limits assumed)": "as above", "experiment": "ThT emission with supernatant of BCAP (released ANA)", "format": "biochemical", "details": "PBS pH 7.4, 25° C., ThT 10 μM"}, "amyloid-beta plaques [3]": {"target": "T2, amyloid-beta plaques", "experiment": "TEM analysis of amyloid-beta plaque morphology", "details": "ANA (100 µM), plaques 20 μM", "experimental": "(§1) To prepare amyloid-beta plaques, amyloid-beta (Aβ) 1-42 (Anaspec, AS-20276, MW=4514.1, 1 mg) was dissolved in a 1× PBS buffer (pH 7.4, 1 mL) to a final concentration of 222 μM. The solution was incubated (200 rpm) at 37° C. for 3 days, and the formed amyloid-beta plaques (Aβ plaques) were used in the following in vitro experiment without additional purification.\nFor TEM analysis, amyloid-beta plaques (20 μM) or amyloid-beta plaques (20 μM) and a compound (ANA, 100 μM) were treated on copper grids at room temperature. Each grid treated with samples (Aβ plaques or Aβ plaques+ANA) was washed three times with DI H2O and then stained with uranyl acetate (1% w/v DI H2O, 5 μL) for 1 minute. The uranyl acetate was removed, the grids were dried at room temperature for 20 minutes, and then the morphology of amyloid-beta plaques was analyzed by transmission electron microscopic images (TEM, Tecnai, G2 F30ST, FEI Company, OR, USA)."}, "amyloid-beta plaques [4]": {"target": "T2, amyloid-beta plaques", "experiment": "Confocal microscopy of amyloid-beta plaques with thioflavin S (ThS)", "details": "incubation with ANA for 24 hours", "experimental": "as §1\nIn addition, to evaluate the presence of amyloid-beta plaques (AB plaques) and a change in the disaggregation morphology of amyloid-beta plaques according to incubation with ANA for 24 hours, thioflavin S (ThS), a probe of amyloid-beta plaques, was additionally treated, and the change thereof was confirmed by fluorescence analysis using a confocal microscope. The samples (Aβ plaques, Aβ plaques +ANA) were added to 1 mL of a ThS (0.5%) solution, and each mixture was pipetted onto a slide glass and dried overnight at room temperature. Then, fluorescence images were obtained using a laser scanning confocal microscope (CLSM, LSM800, Zeiss, Oberkochen, Germany). Confocal images were obtained under excitation at 520 nm (laser power: 3.00%) using a detector (GaAsP, detector gain: 680 V, detector wavelength: 548 to 617 nm)."}}, "data": [{"smiles": "Nc1ccc2cc(S(=O)(=O)O)ccc2c1", "note": "[ANA, 6-amino-2-naphthalenesulfonic acid]", "values": [{"measurement": "amyloid-beta plaque disaggregation efficacy versus concentration", "setting": "[1]; ANA 10 μM to 100 μM, plaques 10 μM", "result": "concentration-dependent manner"}, {"measurement": "amyloid-beta plaque disaggregation efficacy at low concentration", "setting": "[1]; ANA 10 μM, plaques 10 μM", "result": "significantly high amyloid-beta plaque disaggregation efficacy"}, {"measurement": "fluorescence intensity change of ThT compared to a control group", "setting": "[1]; candidate 100 μM, amyloid-beta plaques 10 μM, ThT 10 μM, 37° C., 24 hours, 482 nm", "result": 23, "unit": "%"}, {"measurement": "amyloid-beta plaque disaggregation efficacy among A-T candidates", "setting": "[1]; candidate 100 μM, library screening", "result": "highest amyloid-beta plaque disaggregation efficacy"}, {"measurement": "amyloid-beta plaque disaggregation efficacy under various pH conditions", "setting": "[1]; pH 3, 5, 7, 7.4, and 9", "result": "showed amyloid-beta plaque disaggregation efficacy at all pH conditions"}, {"measurement": "amyloid-beta plaque disaggregation efficacy at pH of the brain", "setting": "[1]; pH 7.4", "result": "highest amyloid-beta plaque disaggregation efficacy"}, {"measurement": "amyloid-beta plaque disaggregation efficacy of ANA released from BCAP", "setting": "amyloid-beta plaques [2]", "result": "still has the amyloid-beta plaque disaggregation efficacy"}, {"measurement": "morphology of amyloid-beta plaques after treatment (TEM)", "setting": "amyloid-beta plaques [3]", "result": "disaggregated and released into monomers"}, {"measurement": "fluorescence intensity of ThS after treatment", "setting": "amyloid-beta plaques [4]", "result": "significantly reduced"}]}]}
